This assay has as its system NOMO1. In words: cell viability relative to DMSO control; higher = less cytotoxic. As to conditions: 48 h. A digest of the protocol: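 Leukemia cells (NOMO1 or SEM, 500 cells/well; P12-Ichikawa, 1000 cells/well) were seeded in 5 μl in 1536-well plates after at least four passages of adaptation to each medium. They received library compounds in DMSO by pin dosing, 11 threefold points from 47 μM to 0.79 nM. Luminescence with CellTiter-Glo One was read after 48 h at 37°C. Viability is stated per plate relative to DMSO wells, with cell-free wells as background.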

[1] abbreviates: HPLM + 10% dialyzed FBS, 0.000781 µM.
The mark [2] stands for this setting: HPLM + 10% dialyzed FBS, 0.00234 µM.
The mark [3] stands for this setting: HPLM + 10% dialyzed FBS, 0.00702 µM.
Setting [4] is: HPLM + 10% dialyzed FBS, 0.0211 µM.
The mark [5] stands for this setting: HPLM + 10% dialyzed FBS, 0.0632 µM.
[6] abbreviates: HPLM + 10% dialyzed FBS, 0.19 µM.
The mark [7] stands for this setting: HPLM + 10% dialyzed FBS, 0.569 µM.
Setting [8] is: HPLM + 10% dialyzed FBS, 1.71 µM.
Setting [9] is: HPLM + 10% dialyzed FBS, 5.12 µM.
Where [10] appears, read: HPLM + 10% dialyzed FBS, 15.4 µM.
Setting [11] is: HPLM + 10% dialyzed FBS, 46.1 µM.
The mark [12] stands for this setting: RPMI 5 mM glucose + 10% FBS, 0.000781 µM.
Where [13] appears, read: RPMI 5 mM glucose + 10% FBS, 0.00234 µM.
Setting [14] is: RPMI 5 mM glucose + 10% FBS, 0.00702 µM.
[15] abbreviates: RPMI 5 mM glucose + 10% FBS, 0.0211 µM.
Setting [16] is: RPMI 5 mM glucose + 10% FBS, 0.0632 µM.
The mark [17] stands for this setting: RPMI 5 mM glucose + 10% FBS, 0.19 µM.
Setting [18] is: RPMI 5 mM glucose + 10% FBS, 0.569 µM.
[19] abbreviates: RPMI 5 mM glucose + 10% FBS, 1.71 µM.
Where [20] appears, read: RPMI 5 mM glucose + 10% FBS, 5.12 µM.
Setting [21] is: RPMI 5 mM glucose + 10% FBS, 15.4 µM.
The mark [22] stands for this setting: RPMI 5 mM glucose + 10% FBS, 46.1 µM.
Where [23] appears, read: RPMI 5 mM glucose + 10% dialyzed FBS, 0.000781 µM.
Setting [24] is: RPMI 5 mM glucose + 10% dialyzed FBS, 0.00234 µM.
Setting [25] is: RPMI 5 mM glucose + 10% dialyzed FBS, 0.00702 µM.
[26] abbreviates: RPMI 5 mM glucose + 10% dialyzed FBS, 0.0211 µM.
Where [27] appears, read: RPMI 5 mM glucose + 10% dialyzed FBS, 0.0632 µM.
Setting [28] is: RPMI 5 mM glucose + 10% dialyzed FBS, 0.19 µM.
[29] abbreviates: RPMI 5 mM glucose + 10% dialyzed FBS, 0.569 µM.
[30] abbreviates: RPMI 5 mM glucose + 10% dialyzed FBS, 1.71 µM.
Where [31] appears, read: RPMI 5 mM glucose + 10% dialyzed FBS, 5.12 µM.
Where [32] appears, read: RPMI 5 mM glucose + 10% dialyzed FBS, 15.4 µM.
Setting [33] is: RPMI 5 mM glucose + 10% dialyzed FBS, 46.1 µM.

A word on the cell viability: it is a read-out of living cells in per cent, often relative to untreated cells. For `CCOc1cc(CC(=O)N[C@@H](CC(C)C)c2ccccc2N2CCCCC2)ccc1C(=O)O`, the cell viability under setting [1] worked out at 117%; the cell viability under setting [2] is 120%; the cell viability under setting [3] was determined as 139%; the cell viability under setting [4] came out at 138%; the cell viability under setting [5] is 141%; the cell viability under setting [6] stood at 126%. The cell viability is, setting by setting: under setting [7], 46.7%; under setting [8], 43.4%; under setting [9], 37%; under setting [10], 41.1%; under setting [11], 34.7%.
With `CCN1CCN(C(=O)Cc2ccc(Nc3ncc(F)c(Nc4ccc(C(=O)Nc5ccccc5Cl)cc4)n3)cc2)CC1`, the cell viability runs as follows: under setting [1], 93.9%; under setting [2], 119%; under setting [3], 112%; under setting [4], 115%; under setting [5], 112%; under setting [6], 114%. Besides, the cell viability runs as follows: under setting [7], 109%; under setting [8], 109%; under setting [9], 62.6%; under setting [10], 62.4%; under setting [11], 49.1%; under setting [12], 99.6%. For the same compound, the cell viability under setting [13] came to 98.1%; the cell viability under setting [14] turned out to be 98%; the cell viability under setting [15] was determined as 92.7%; the cell viability under setting [16] was determined as 111%; the cell viability under setting [17] is 121%; the cell viability under setting [18] amounted to 101%. Further, the cell viability under setting [19] is 90.7%; the cell viability under setting [20] stood at 81.2%; the cell viability under setting [21] was 47.1%; the cell viability under setting [22] came to 59.4%; the cell viability under setting [23] turned out to be 97.5%; the cell viability under setting [24] stood at 109%. Further, the cell viability under setting [25] was found to be 104%; the cell viability under setting [26] was 117%; the cell viability under setting [27] was 107%; the cell viability under setting [28] worked out at 103%; the cell viability under setting [29] was 114%; the cell viability under setting [30] stood at 103%. Also, the cell viability under setting [31] is 64.9%, the cell viability under setting [32] is 55.8% and the cell viability under setting [33] turned out to be 49%.
For `COc1cc(C(=O)NS(=O)(=O)c2ccccc2C)ccc1Cc1cn(C)c2ccc(NC(=O)OC3CCCC3)cc12`, the cell viability runs as follows: under setting [1], 66.5%; under setting [2], 66.3%; under setting [3], 75.8%; under setting [4], 91.5%; under setting [5], 79.7%; under setting [6], 77.8%. Besides, the cell viability under setting [7] amounted to 87.3%; the cell viability under setting [8] turned out to be 87.3%; the cell viability under setting [9] worked out at 87.1%; the cell viability under setting [10] worked out at 83.8%; the cell viability under setting [11] was found to be 31.1%; the cell viability under setting [12] amounted to 77.7%. Further, the cell viability under setting [13] was 86.9%; the cell viability under setting [14] worked out at 79.6%; the cell viability under setting [15] is 80.1%; the cell viability under setting [16] came to 77.6%; the cell viability under setting [17] amounted to 86.5%; the cell viability under setting [18] came to 82.4%. The cell viability is, setting by setting: under setting [19], 87.6%; under setting [20], 85.2%; under setting [21], 80.4%; under setting [22], 18.9%; under setting [23], 68%; under setting [24], 84.5%. Further, the cell viability is 76.4% under setting [25]; 92.9% under setting [26]; 88.8% under setting [27]; 99.7% under setting [28]; 83.5% under setting [29]; 81.6% under setting [30]. Moreover, the cell viability under setting [31] amounted to 86.1%, the cell viability under setting [32] is 81.2% and the cell viability under setting [33] amounted to 6.79%.
As for `CNC(=O)Nc1ccc(-c2nc(N3CC4CCC(C3)O4)c3cnn(C4CCC5(CC4)OCCO5)c3n2)cc1`, the cell viability is, setting by setting: under setting [1], 101%; under setting [2], 88.6%; under setting [3], 97.2%; under setting [4], 86.1%; under setting [5], 73%; under setting [6], 75.9%. The cell viability reads like this: under setting [7], 70.4%; under setting [8], 63.8%; under setting [9], 63.3%; under setting [10], 57.2%; under setting [11], 51.6%; under setting [12], 108%. Also, the cell viability is, setting by setting: under setting [13], 115%; under setting [14], 118%; under setting [15], 99.3%; under setting [16], 91.4%; under setting [17], 81.1%; under setting [18], 74.7%. Moreover, the cell viability runs as follows: under setting [19], 73%; under setting [20], 72.2%; under setting [21], 65.1%; under setting [22], 69.8%; under setting [23], 105%; under setting [24], 101%. Further, the cell viability is, setting by setting: under setting [25], 84.3%; under setting [26], 79.3%; under setting [27], 77.6%; under setting [28], 68.5%; under setting [29], 71.5%; under setting [30], 62%. Further, the cell viability was found to be 62% under setting [31], 55.1% under setting [32] and 52.4% under setting [33].
On to `COc1cc(O)c2c(c1)C(=O)c1cc(C)cc(O)c1C2=O`, for which the cell viability was 107% under setting [12]; 119% under setting [13]; 111% under setting [14]; 115% under setting [15]; 102% under setting [16]; 113% under setting [17]. Further, the cell viability under setting [18] amounted to 101%; the cell viability under setting [19] amounted to 110%; the cell viability under setting [20] worked out at 105%; the cell viability under setting [21] stood at 92.3%; the cell viability under setting [22] was determined as 31.2%; the cell viability under setting [23] was 115%. For the same compound, the cell viability came to 114% under setting [24]; 110% under setting [25]; 110% under setting [26]; 120% under setting [27]; 118% under setting [28]; 109% under setting [29]. For the same compound, the cell viability under setting [30] came out at 119%, the cell viability under setting [31] stood at 120%, the cell viability under setting [32] is 85.4% and the cell viability under setting [33] stood at 24.3%.
Turning to `Cc1ccc2c(c1)c1c(n2CCc2ccc(C)nc2)CCN(C)C1`, the cell viability under setting [1] is 126%; the cell viability under setting [2] is 115%; the cell viability under setting [3] amounted to 111%; the cell viability under setting [4] was 130%; the cell viability under setting [5] came out at 128%; the cell viability under setting [6] was determined as 130%. For the same compound, the cell viability by setting is: under setting [7], 141%; under setting [8], 134%; under setting [9], 141%; under setting [10], 153%; under setting [11], 127%.

These data come from the supplement of paper PMC11451515.
